According to US11952365B2, “Anti-viral compounds” (Aligos Therapeutics, Inc., priority 2020, dated 2024):
pEC50, pIC50: −log10 of the molar value. Like-named read-outs stand apart in the source and are kept apart here.

Columns and labels:
[1] = test system: SARS-CoV-2-GHB-03021/2020; experiment: SARS-CoV-2 Infection Model in Huh7 Cells; type: cell-based; settings: Severe acute respiratory syndrome coronavirus 2, Huh-7, 96 h, SARS-CoV-2, day 4 p.i., MTS
[2] = Cytotoxicity plates without OC43 virus (cell-titer-glo); type: cell-based, human; settings: human; HeLa cells without OC43 virus, class symbols
Summary of the method: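 HeLa cells seeded overnight, then treated with serially diluted compounds in 2% FBS EMEM, uninfected, in parallel with the OC43 antiviral plates. Incubated 6 days at 33 °C; viability read by CellTiter-Glo luminescence.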

in vitro [3] = settings: human
[4] = test system: human beta-coronavirus OC43; experiment: microbe, parasite or virus in culture; type: cell-based; settings: Betacoronavirus 1, OC43, HeLa, 144 h
[5] = test system: SARS-CoV-2-GHB-03021/2020; experiment: microbe, parasite or virus in culture; type: cell-based; settings: Severe acute respiratory syndrome coronavirus 2, Vero C1008, 96 h; read-out: VeroE6 + CP (EC50)
human cathepsin L = target: T1, human cathepsin L (Homo sapiens, UniProt P07711); experiment: cathepsin L assay; type: biochemical; settings: 10 pM human cathepsin L, Z-FR-AMC 2 μM, class symbols
T1 construct: purchased R&D Systems
Summary of the method: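 Human cathepsin L at 10 pM was preincubated 30 min with compound, then reaction started with Z-FR-AMC (2 μM final). Fluorescence (355/460 nm) read every 2 min for 30 min; IC50 from four-parameter curve fit.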

3CLpro = 3CLpro (Severe acute respiratory syndrome coronavirus 2, UniProt P0DTD1); experiment: SARS-CoV-2 3CLpro protease assay (duplex, SAMDI-MS); type: biochemical; set-up: For the duplex assay, 3CLpro and HRV3C was added; settings: 3CLpro, 30 mins preincubation, read-out: SARS-Cov-2 IC50
HRV3C = HRV3C (Human rhinovirus 14, UniProt P03303); experiment: HRV3C protease assay (duplex, SAMDI-MS); type: biochemical, HRV; settings: 30 mins preincubation
Summary of the method: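 Duplex format with 3CLpro; 30 min enzyme–compound preincubation, 30 min reaction with two peptide substrates, ambient temp. Stop: 0.5% formic acid, neutralized with 1% NaHCO3 (finals). Readout SAMDI-MS, product AUC over internal standard AUC; four-parameter IC50.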

in vitro [6] = settings: African green monkey, VeroE6 + CP (CC50), Vero E6-eGFP cells with CP-100356, absence of virus, MTS
[7] = OC43 in HeLa cells, 6 days at 33° C., class symbols, read-out: EC50
[8] = HRV3C, class symbols, read-out: HRV IC50
[9] = HRV3C, bound, read-out: HRV IC50
[10] = OC43 in HeLa cells, 6 days at 33° C., bound, read-out: EC50

Row | SMILES | pEC50 ([1]; numeric bounds) | CC50 at 6 days [2] [µM] | CC50 (in vitro [3]) [µM] | pEC50 [4, 7] | pEC50 [5] | pIC50 (human cathepsin L) | pIC50 (3CLpro; class symbols) | pIC50 (HRV3C; [8]) | pEC50 ([1]; class symbols) | pIC50 (HRV3C; [9]) | pIC50 (HRV3C; HRV IC50, HRV3C, bound) | pEC50 [4] | pEC50 [4, 10] | pIC50 (HRV3C; HRV IC50, HRV3C, class symbols) | pIC50 (3CLpro; bound) | CC50 (in vitro [6]; numeric bounds) [µM] | CC50 (in vitro [6]; class symbols) [µM]
1 | O=C(NCc1ccccc1)C(=O)[C@H](C[C@@H]1CCNC1=O)NC(=O)[C@@H]1C[C@@H](C2CCCCC2)CN1C(=O)c1cc2ccccc2[nH]1 [Compound 20] | < 4.00 | > 10 | 1 to 10 | > 7.00 | 5.00 to 6.00 | ≤ 5.00 | 5.70 to 6.70 | 5.70 to 6.70 |  |  |  |  |  |  |  |  | 
2 | COc1cccc2[nH]c(C(=O)N3C[C@H]4[C@@H]([C@H]3C(=O)N[C@@H](C[C@@H]3CCCNC3=O)C(=O)C(=O)NC3CC3)C4(C)C)cc12 [Compound 57, (3S)—N-cyclopropyl-3-{[(1R,2S,5S)-3-(4-methoxy-1H-indole-2-carbonyl)-6,6-dimethyl-3-azabicyclo[3.1.0]hexan-2-yl]formamido}-2-oxo-4-[(3S)-2-oxopiperidin-3-yl]butanamide] |  | > 10 | > 100 | 6.00 to 7.00 |  | ≤ 5.00 | 6.70 to 7.70 | 5.70 to 6.70 | 5.00 to 6.00 |  |  |  |  |  |  |  | 
3 | N#Cc1cccc2[nH]c(C(=O)N3C[C@@H]4CCC[C@@H]4[C@H]3C(=O)N[C@@H](C[C@@H]3CCNC3=O)C(=O)CO)cc12 [Compound 66, (1S,3aR,6aS)-2-(4-cyano-1H-indole-2-carbonyl)-N-[(2S)-4-hydroxy-3-oxo-1-[(3S)-2-oxopyrrolidin-3-yl]butan-2-yl]-hexahydro-1H-cyclopenta[c]pyrrole-1-carboxamide] |  | > 10 | > 100 | 5.00 to 6.00 |  | ≤ 5.00 | 6.70 to 7.70 |  | 4.00 to 5.00 | < 5.00 |  |  |  |  |  |  | 
4 | N#Cc1cccc2[nH]c(C(=O)N3C[C@@H]4CCC[C@@H]4[C@H]3C(=O)NC(C[C@@H]3CCNC3=O)C(=O)COCc3ccccc3)cc12 (stereo partly drawn) [Compound 66A, (1S,3aR,6aS)—N-[4-(benzyloxy)-3-oxo-1-[(3S)-2-oxopyrrolidin-3-yl]butan-2-yl]-2-(4-cyano-1H-indole-2-carbonyl)-hexahydro-1H-cyclopenta[c]pyrrole-1-carboxamide] |  | > 10 | > 10 | 6.00 to 7.00 |  | ≤ 5.00 | 5.70 to 6.70 |  | 5.00 to 6.00 | < 5.00 |  |  |  |  |  |  | 
5 | COc1ccnc2[nH]c(C(=O)N3C[C@@H]4CCC[C@@H]4[C@H]3C(=O)N[C@@H](C[C@@H]3CCNC3=O)C(=O)CO)cc12 [Compound 67, (1S,3aR,6aS)—N-[(2S)-4-hydroxy-3-oxo-1-[(3S)-2-oxopyrrolidin-3-yl]butan-2-yl]-2-{4-methoxy-1H-pyrrolo[2,3-b]pyridine-2-carbonyl}-hexahydro-1H-cyclopenta[c]pyrrole-1-carboxamide] |  | > 10 | > 100 | 5.00 to 6.00 |  | ≤ 5.00 | 6.70 to 7.70 |  | 4.00 to 5.00 | < 5.00 |  |  |  |  |  |  | 
6 | COc1c(Cl)ccc2[nH]c(C(=O)N3C[C@@H]4CCC[C@@H]4[C@H]3C(=O)N[C@@H](C[C@@H]3CCNC3=O)C(=O)CO)cc12 [Compound 68, (1S,3aR,6aS)-2-(5-chloro-4-methoxy-1H-indole-2-carbonyl)-N—((S)-4-hydroxy-3-oxo-1-((S)-2-oxopyrrolidin-3-yl)butan-2-yl)octahydrocyclopenta[c]pyrrole-1-carboxamide] |  | > 10 | > 100 | 6.00 to 7.00 |  | ≤ 5.00 | 6.70 to 7.70 |  | 5.00 to 6.00 | < 5.00 |  |  |  |  |  |  | 
7 | COCC(=O)[C@H](C[C@@H]1CCNC1=O)NC(=O)[C@@H]1[C@H]2CCC[C@H]2CN1C(=O)c1cc2c(OC)cccc2[nH]1 [Compound 71, (1S,3aR,6aS)-2-(4-methoxy-1H-indole-2-carbonyl)-N-[(2S)-4-methoxy-3-oxo-1-[(3S)-2-oxopyrrolidin-3-yl]butan-2-yl]-hexahydro-1H-cyclopenta[c]pyrrole-1-carboxamide] |  | > 10 | > 100 | 6.00 to 7.00 |  | ≤ 5.00 | 5.70 to 6.70 |  | 5.00 to 6.00 |  | < 5.00 |  |  |  |  |  | 
8 | COc1cccc2oc(C(=O)N3C[C@@H]4CCC[C@@H]4[C@H]3C(=O)N[C@@H](C[C@@H]3CCNC3=O)C(=O)CO)cc12 [Compound 94, (1S,3aR,6aS)—N-[(2S)-4-hydroxy-3-oxo-1-[(3S)-2-oxopyrrolidin-3-yl]butan-2-yl]-2-(4-methoxy-1-benzofuran-2-carbonyl)-hexahydro-1H-cyclopenta[c]pyrrole-1-carboxamide] |  | > 10 | > 100 | 5.00 to 6.00 |  | ≤ 5.00 | 5.70 to 6.70 |  | 4.00 to 5.00 | < 5.00 |  |  |  |  |  |  | 
9 | O=C(NCc1ccccc1)C(=O)[C@H](Cc1cc[nH]n1)NC(=O)[C@@H]1CC2(CC2)CN1C(=O)c1cc2ccccc2[nH]1 [Compound 96, (S)—N—((S)-4-(benzylamino)-3,4-dioxo-1-(1H-pyrazol-3-yl)butan-2-yl)-5-(1H-indole-2-carbonyl)-5-azaspiro[2.4]heptane-6-carboxamide] | < 4.00 | > 10 | > 10 |  |  | 5.00 to 6.00 | 4.70 to 5.70 |  |  |  | < 5.00 | 5.00 to 6.00 |  |  |  |  | 
10 | COc1cccc2[nH]c(C(=O)N3Cc4ccccc4C[C@H]3C(=O)N[C@@H](C[C@@H]3CCNC3=O)C(=O)C(=O)NC3CC3)cc12 [Compound 97, (S)—N—((S)-4-(cyclopropylamino)-3,4-dioxo-1-((S)-2-oxopyrrolidin-3-yl)butan-2-yl)-2-(4-methoxy-1H-indole-2-carbonyl)-1,2,3,4-tetrahydroisoquinoline-3-carboxamide] | < 4.00 | > 10 | > 100 |  |  | ≤ 5.00 | 5.70 to 6.70 |  |  |  |  |  | < 5.00 | 6.70 to 7.70 |  |  | 
11 | O=C(NCc1ccccc1)C(=O)[C@H](Cc1ccncc1)NC(=O)[C@@H]1CC2(CC2)CN1C(=O)c1cc2ccccc2[nH]1 [Compound 112] | < 4.00 | > 10 | > 10 |  |  | 5.00 to 6.00 |  |  |  | < 5.00 |  |  | < 5.00 |  | < 5.00 |  | 
12 | COc1cccc2[nH]c(C(=O)N3C[C@@H]4CCC[C@@H]4[C@H]3C(=O)N[C@@H](CN3C[C@H](O)CC3=O)C(=O)C(=O)NC3CC3)cc12 [Compound 178] | < 5.00 |  | > 10 |  | < 4.30 | ≤ 5.00 | 4.70 to 5.70 |  |  | < 5.00 |  |  |  |  |  | > 50 | 
13 | COc1cccc2[nH]c(C(=O)N3CCC4(CC4)C[C@H]3C(=O)N[C@@H](C[C@@H]3CCNC3=O)C(=O)C(=O)NC3CC3)cc12 [Compound 179] | < 5.00 |  | > 10 |  | 4.00 to 5.00 | 5.00 to 6.00 | > 7.70 | 5.70 to 6.70 |  |  |  |  |  |  |  | > 50 | 
14 | O=C(NC1CC1)C(=O)[C@H](C[C@@H]1CCNC1=O)NC(=O)[C@@H]1CC2(CCN1C(=O)c1cc3c(C4CC4)cccc3[nH]1)CC2 [Compound 180] |  |  | > 10 |  | 5.00 to 6.00 | 5.00 to 6.00 | 6.70 to 7.70 | 5.70 to 6.70 | 5.00 to 6.00 |  |  |  |  |  |  | > 50 | 
15 | O=C(NC1CC1)C(=O)[C@H](C[C@@H]1CCNC1=O)NC(=O)[C@@H]1CC2(CCN1C(=O)c1cc3ccccc3o1)CC2 [Compound 181] |  |  | > 10 |  | 5.00 to 6.00 | 5.00 to 6.00 | 6.70 to 7.70 | 5.70 to 6.70 | 5.00 to 6.00 |  |  |  |  |  |  | > 50 | 
16 | O=C(NCCCC(F)(F)F)C(=O)[C@H](C[C@@H]1CCNC1=O)NC(=O)[C@@H]1[C@H]2CCC[C@H]2CN1C(=O)c1cc2c(Cl)cc(Cl)cc2[nH]1 [Compound 182] | < 5.00 |  | 1 to 10 |  | 5.00 to 6.00 | ≤ 5.00 | 5.70 to 6.70 |  |  | < 5.00 |  |  |  |  |  |  | > 10
17 | CC(C)CCCNC(=O)C(=O)[C@H](C[C@@H]1CCNC1=O)NC(=O)[C@@H]1[C@H]2CCC[C@H]2CN1C(=O)c1cc2c(Cl)cc(Cl)cc2[nH]1 [Compound 183] |  |  | 1 to 10 |  | > 6.00 | 5.00 to 6.00 | 6.70 to 7.70 |  | 5.00 to 6.00 | < 5.00 |  |  |  |  |  |  | 1 to 10
